Source: US20250325711A1, “COVALENT FLUORESCENT PROBES FOR CANNABINOID RECEPTOR 2” (Hoffmann-La Roche Inc., priority 2022, published 2025)

Biological target: hCB2R (Homo sapiens (Human), UniProt P34972)
Assay: TR-FRET hCB2R Binding Assay
Conditions: SNAP-tagged human CB2R HEK293-TR cell membranes, TR-FRET (HTRF) detection, nonspecific binding with 1 μM SR144528; read-out: Kd hCB2R

COc1cc(C(C)(C)CCCCCCN=[N+]=[N-])cc(OC)c1[C@H]1C=C(CNC(=O)CCCCCCNC(=O)c2ccc(=O)n(S(=O)(=O)c3cccc(C(=O)NCc4cn(CCOCCOCCOCCOCCNc5ccc([N+](=O)[O-])c6nonc56)nn4)c3)c2)[C@H]2C[C@@H]1C2(C)C [Example 4, N-(7-((((1S,4S,5S)-4-(4-(8-azido-2-methyloctan-2-yl)-2,6-dimethoxyphenyl)-6,6-dimethylbicyclo[3.1.1]hept-2-en-2-yl)methyl)amino)-7-oxoheptyl)-1-((3-(((1-(14-((7-nitrobenzo[c][1,2,5]oxadiazol-4-yl)amino)-3,6,9,12-tetraoxatetradecyl)-1H-1,2,3-triazol-4-yl)methyl)carbamoyl)phenyl)sulfonyl)-6-oxo-1,6-dihydropyridine-3-carboxamide]
Kd: 4.5 nM
